# Data published in patent publication US8008510B2, “Metalloprotein inhibitors” (The Regents of the University of California, priority 2004, dated 2011).
# Target: MMP-3 (Homo sapiens, UniProt P08254)
# Experiment: MMP-3 fluorescence-based inhibition assay
# Sequence of MMP-3 (P08254 100-272 limits assumed): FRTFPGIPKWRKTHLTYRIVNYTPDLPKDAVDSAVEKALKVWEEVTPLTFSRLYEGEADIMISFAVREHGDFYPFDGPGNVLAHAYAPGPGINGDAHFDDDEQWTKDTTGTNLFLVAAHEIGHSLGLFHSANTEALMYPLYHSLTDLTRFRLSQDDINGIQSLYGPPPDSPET
IC50 [µM],inhibition at 50 µM (read-out: inhibition of MMP-3) [%],SMILES
90,–,Cc1cc(=O)c(O)c(C(=O)Nc2ccc(-c3ccccc3)cc2)o1 [AM3]
–,25,O=C(NCc1ccc(-c2ccccc2)cc1)c1cc(=O)c(O)co1 [CA1]
